In US8247431B2, “Heterocyclic hydrazide compound and pesticidal use of the same” (Sumitomo Chemical Company, Limited, priority 2007, dated 2012):

Experiments:
Format in all cases: in vivo
[1] = test system: Adoxophyes orana fasciata; test: Test Example 4: spray on apple seedling, first-instar larvae of Adoxophyes orana fasciata; details: 168 h, 500 ppm active ingredient, 20 ml spray on apple seedling, about 30 first-instar larvae, counted seven days after spraying, read-out: controlling value
Description: Then, it will be shown by Test Examples that the present compound is effective in controlling harmful arthropods. In the Test Example, controlling values were calculated by the following equation: Controlling value(%)={1−(Cb×Tai)/(Cai×Tb)}×100 wherein Cb: the number of worms in a non-treated section before treatment Cai: the number of worms in a non-treated section on observation Tb: the number of worms in a treated-section before treatment Tai: the number of worms in a treated-section on observation. Preparations of the test compounds obtained in Formulation Example 5 were diluted with water so that the active ingredient concentration became 500 ppm to prepare test spray solutions. At the same time, 20 ml of the test spray solution as described above was sprayed to an apple seedling (28 day-old seeding, tree height: about 15 cm) planted in a plastic cup. The apple seedling was air-dried to such an extent that the spray solution sprayed on the apple seedling was dried. About 30 first-instar larvae of Adoxophyes orana fasciata were released. Seven days after spraying, the number of worms surviving on the apple seedling was counted, and a controlling value was calculated by the above equation.

Spodoptera litura = test: Test Example 3: spray on cabbage, fourth-instar larvae of Spodoptera litura; details: 120 h, 500 ppm active ingredient, 20 ml/cup spray on cabbage, 10 fourth-instar larvae, counted after 5 days, read-out: controlling value
Description: Then, it will be shown by Test Examples that the present compound is effective in controlling harmful arthropods. In the Test Example, controlling values were calculated by the following equation: Controlling value(%)={1−(Cb×Tai)/(Cai×Tb)}×100 wherein Cb: the number of worms in a non-treated section before treatment Cai: the number of worms in a non-treated section on observation Tb: the number of worms in a treated-section before treatment Tai: the number of worms in a treated-section on observation. Preparations of the test compounds obtained in Formulation Example 5 were diluted with water so that the active ingredient concentration became 500 ppm to prepare test spray solutions. At the same time, cabbage was planted in a polyethylene cup, and grown until the third true leaf or the fourth true leaf was developed. The test spray solution as described above was sprayed in an amount of 20 ml/cup on the cabbage. After the spray solution sprayed on the cabbage was dried, 10 fourth-instar larvae of Spodoptera litura were put on the cabbage. After 5 days, the number of Spodoptera litura surviving on the cabbage leaves was counted, and a controlling value was calculated by the above equation.

[2] = test system: cotton aphids (Aphis gossypii); test: Test Example 2: spray on cucumber infested with cotton aphids; details: topical, 144 h, 500 ppm active ingredient, 20 ml/cup spray on cucumber, about 30 aphids, counted six days after spraying, read-out: controlling value
Description: Then, it will be shown by Test Examples that the present compound is effective in controlling harmful arthropods. In the Test Example, controlling values were calculated by the following equation: Controlling value(%)={1−(Cb×Tai)/(Cai×Tb)}×100 wherein Cb: the number of worms in a non-treated section before treatment Cai: the number of worms in a non-treated section on observation Tb: the number of worms in a treated-section before treatment Tai: the number of worms in a treated-section on observation. Preparations of the test compounds obtained in Formulation Example 5 were diluted with water so that the active ingredient concentration became 500 ppm to prepare test spray solutions. At the same time, cucumber was planted in a polyethylene cup, and was grown until the first true leaf was developed. About 30 cotton aphids were put on the cucumber. One day after, the test spray solution as described above was sprayed in an amount of 20 ml/cup on the cucumber. Six days after spraying, the number of cotton aphids (Aphis gossypii) was counted, and a controlling value was calculated by the above equation.

[3] = test system: diamondback moths (Plutella xylostella); test: Test Example 1: spray on cabbage, third-instar larvae of diamondback moths; details: Plutella xylostella, 120 h; 500 ppm active ingredient, 20 ml/cup spray on cabbage, 10 third-instar larvae, counted after 5 days; read-out: controlling value
Description: Then, it will be shown by Test Examples that the present compound is effective in controlling harmful arthropods. In the Test Example, controlling values were calculated by the following equation: Controlling value(%)={1−(Cb×Tai)/(Cai×Tb)}×100 wherein Cb: the number of worms in a non-treated section before treatment Cai: the number of worms in a non-treated section on observation Tb: the number of worms in a treated-section before treatment Tai: the number of worms in a treated-section on observation. Preparations of the test compounds obtained in Formulation Example 5 were diluted with water so that the active ingredient concentration became 500 ppm, to prepare test spray solutions. At the same time, cabbage was planted in a polyethylene cup, and grown until the third true leaf or the fourth true leaf was developed. The test spray solution as described above was sprayed in an amount of 20 ml/cup on the cabbage. After the spray solution on the cabbage was dried, 10 third-instar larvae of diamondback moths (Plutella xylostella) were put on the cabbage. After 5 days, the number of diamondback moths was counted, and the controlling value was calculated by the above equation. Furthermore, preparations of the test compound (7) and a comparative compound of the formula [drawing 523] obtained in a formulation according to Formulation Example 5 were diluted with water so that the active ingredient concentration became 0.2 ppm, to prepare test spray solution. At the same time, cabbage was planted in a polyethylene cup, and grown until the third true leaf or the fourth true leaf was developed. The test spray solution as described above was sprayed in an amount of 20 ml/cup on the cabbage. After the spray solution on the cabbage was dried, 10 third-instar larvae of diamondback moths (Plutella xylostella) were put on the cabbage. After 5 days, the number of diamondback moths was counted, and the controlling value was calculated by the above equation.

Structure (SMILES)	pest or weed control at 500 ppm [1] [%]	pest or weed control at 500 ppm (Spodoptera litura) [%]	pest or weed control at 500 ppm [2] [%]	pest or weed control at 500 ppm [3] [%]
COC(=O)NNC(=O)c1nc(Cl)cc(Cl)c1NC(=O)c1cc(Br)nn1-c1ncccc1Cl [Compound 14, N′-(3-{[5-bromo-2-(3-chloro-pyridin-2-yl)-2H-pyrazole-3-carbonyl]-amino}-4,6-dichloro-pyridine-2-carbonyl)-hydrazinecarboxylic acid methyl ester]	≥ 90	≥ 80	≥ 90	≥ 90
COC(=O)NNC(=O)c1nc(Cl)cc(Br)c1NC(=O)c1cc(Br)nn1-c1ncccc1Cl [Compound 15, N′-(4-bromo-3-{[5-bromo-2-(3-chloro-pyridin-2-yl)-2H-pyrazole-3-carbonyl]-amino}-6-chloro-pyridine-2-carbonyl)-hydrazine carboxylic acid methyl ester]	≥ 90	≥ 80	≥ 90	≥ 90
